Bounds are passed on as bounds.

These results are taken from patent publication US10285982B2, “3-(1H-pyrrolo[2,3-B]pyridin-2-yl)-1H-pyrazolo[3,4-C]pyridines and therapeutic uses thereof” (Samumed, LLC, priority 2015, dated 2019).

Common to all, as to type: cell-based
One assay deals with SW480 colon cancer cells. The assay can be described thus: Cell viability assay (CellTiter-Blue). The settings on record: Homo sapiens, 96 h, four days; for inhibition at 10 µM: given where EC50 >10 μM, read-out: percent inhibition at 10 μM. In a few lines:
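Approximately 2×10^3 SW480 cells per well are seeded with compound (8 points, threefold steps, top 10 μM) and incubated four days at 37 °C. CellTiter-Blue is then added for about 3 h and fluorescence read. Non-linear regression gives EC50; for values beyond 10 μM, percent inhibition at that concentration is listed.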
For orientation: The colour change of resazurin is a common sign of viable cells or microbes.

The next assay concerns IL-6 (THP-1 cells). The assay can be described thus: IL-6 inhibition in LPS-stimulated THP-1 cells (HTRF). The settings on record: Homo sapiens; for EC50: IL-6 in THP-1 cells, LPS 500 ng/mL, 22 hours; for inhibition at 10 µM: given where EC50 >10 μM, IL-6, THP-1 cells, LPS, read-out: percent inhibition at 10 μM. The gist of the method:
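THP-1 cells, serum-reduced (1% FBS) for 24 h, were preincubated with compound (10-point 1:3 series from 10 μM, 0.1% DMSO) for 2 h, then stimulated with 500 ng/mL LPS for 22 h at 37° C. IL-6 was read by HTRF (665/620 nm ratio) and normalized to DMSO. EC50 from four-parameter fit; % inhibition at 10 μM given if EC50 >10 μM.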
(In TR-FRET formats the signal depends on donor and acceptor labels being close together.)

Assay [1] relates to Wnt activity (Sp5-Luc reporter, SW480 colon carcinoma cells). The assay can be described thus: Wnt activity screening assay, Sp5-Luc reporter gene in SW480 cells. The conditions noted are these: Homo sapiens; for inhibition at 10 µM: given where EC50 >10 μM, read-out: percent inhibition at 10 μM; for EC50: overnight incubation. In a few lines:
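Wnt-driven firefly luciferase in SW480 colon carcinoma cells reports pathway activity after overnight compound exposure (10 μM top concentration, 3-fold steps). Signal is normalized to DMSO controls.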

In the case of `Nc1cncc(-c2cc3c(-c4cc5c(-c6ccccc6F)ccnc5[nH]4)n[nH]c3cn2)c1` [Compound 59, 5-(3-(4-(2-Fluorophenyl)-1H-pyrrolo[2,3-b]pyridin-2-yl)-1H-pyrazolo[3,4-c]pyridin-5-yl)pyridin-3-amine], the inhibition (in general, the drop in the measured response relative to a control, in per cent) at 10 µM is 16.4% with SW480 colon cancer cells, 37.3% in the assay with IL-6 (THP-1 cells) and 14.3% in assay [1]. The EC50 (with SW480 colon cancer cells; in the assay with IL-6 (THP-1 cells); in assay [1]) was greater than 10 µM each time.

On to `O=C(Nc1cncc(-c2cc3c(-c4cc5c(-c6ccccc6F)ccnc5[nH]4)n[nH]c3cn2)c1)C1CCCCC1` [Compound 79, N-(5-(3-(4-(2-Fluorophenyl)-1H-pyrrolo[2,3-b]pyridin-2-yl)-1H-pyrazolo [3,4-c]pyridin-5-yl)pyridin-3-yl)cyclohexanecarboxamide], for which the EC50 – broadly, the concentration giving half of the maximal effect – with SW480 colon cancer cells is 3.49 µM; in the assay with IL-6 (THP-1 cells), greater than 10 µM; in assay [1] it was 0.359 µM. Also, the inhibition at 10 µM in the assay on IL-6 (THP-1 cells) was 5.9%.

As for `CC(C)CC(=O)Nc1cncc(-c2cc3c(-c4cc5c(-c6ccncc6)ccnc5[nH]4)n[nH]c3cn2)c1` [Compound 114, 3-Methyl-N-(5-(3-(4-(pyridin-4-yl)-1H-pyrrolo[2,3-b]pyridin-2-yl)-1H-pyrazolo[3,4-c]pyridin-5-yl)pyridin-3-yl)butanamide], the inhibition at 10 µM worked out at 0% in the assay with SW480 colon cancer cells, 13% with IL-6 (THP-1 cells) and 9.6% in assay [1]. For the same molecule, the EC50 (with SW480 colon cancer cells; in the assay on IL-6 (THP-1 cells); in assay [1]) was greater than 10 µM each time.

Take `c1cc(N2CCCCC2)c2cc(-c3n[nH]c4cnc(-c5cncc(CN6CCCC6)c5)cc34)[nH]c2n1` [Compound 182, 3-(4-(Piperidin-1-yl)-1H-pyrrolo[2,3-b]pyridin-2-yl)-5-(5-(pyrrolidin-1-ylmethyl)pyridin-3-yl)-1H-pyrazolo[3,4-c]pyridine]: the inhibition at 10 µM in the assay with SW480 colon cancer cells was 54.9%; in the assay on IL-6 (THP-1 cells) it was 39%; in assay [1], 41.4%. Also, the EC50 (in the assay with SW480 colon cancer cells; in the assay on IL-6 (THP-1 cells); in assay [1]) was greater than 10 µM throughout.

On to `c1ccc(-c2cc3c(-c4cc5c(-c6ccncc6)ccnc5[nH]4)n[nH]c3cn2)nc1` [Compound 140, 5-(Pyridin-2-yl)-3-(4-(pyridin-4-yl)-1H-pyrrolo[2,3-b]pyridin-2-yl)-1H-pyrazolo[3,4-c]pyridine], for which the inhibition at 10 µM in the assay with SW480 colon cancer cells worked out at 17.5%; in the assay on IL-6 (THP-1 cells), 23.5%; in assay [1], 24.3%. For the same molecule, the EC50 (with SW480 colon cancer cells; in the assay with IL-6 (THP-1 cells); in assay [1]) was greater than 10 µM each time.

Turning to `CCNCc1cncc(-c2cc3c(-c4cc5c(-c6cccnc6)ccnc5[nH]4)n[nH]c3cn2)c1` [Compound 90, N-((5-(3-(4-(Pyridin-3-yl)-1H-pyrrolo[2,3-b]pyridin-2-yl)-1H-pyrazolo[3,4-c]pyridin-5-yl)pyridin-3-yl)methyl)ethanamine], the inhibition at 10 µM in the assay with SW480 colon cancer cells came out at 16%; with IL-6 (THP-1 cells), 33.9%. In addition, the results for the EC50 (with SW480 colon cancer cells; in the assay with IL-6 (THP-1 cells); in assay [1]) were greater than 10 µM, greater than 10 µM and 3.2 µM, respectively.

With `Fc1cccc(-c2ccnc3[nH]c(-c4n[nH]c5cnc(-c6cccnc6)cc45)cc23)c1` [Compound 4, 3-(4-(3-Fluorophenyl)-1H-pyrrolo[2,3-b]pyridin-2-yl)-5-(pyridin-3-yl)-1H-pyrazolo[3,4-c]pyridine], the EC50 in the assay on SW480 colon cancer cells is 2.73 µM; in the assay with IL-6 (THP-1 cells), greater than 10 µM; in assay [1], 1.21 µM. The inhibition at 10 µM in the assay with IL-6 (THP-1 cells) worked out at 21.3%.

Turning to `Fc1cccc(-c2ccnc3[nH]c(-c4n[nH]c5cnc(-c6cncc(OCc7ccccc7)c6)cc45)cc23)c1` [Compound 518, 5-(5-(Benzyloxy)pyridin-3-yl)-3-(4-(3-fluorophenyl)-1H-pyrrolo[2,3-b]pyridin-2-yl)-1H-pyrazolo[3,4-c]pyridine], the inhibition at 10 µM in the assay on SW480 colon cancer cells stood at 41.5%; in the assay with IL-6 (THP-1 cells), 0%; in assay [1] it was 3.3%. In addition, the EC50 (with SW480 colon cancer cells; in the assay on IL-6 (THP-1 cells); in assay [1]) was greater than 10 µM in each case.

Take `O=C(Cc1ccccc1)Nc1cncc(-c2cc3c(-c4cc5c(-c6ccncc6)ccnc5[nH]4)n[nH]c3cn2)c1` [Compound 122, 2-Phenyl-N-(5-(3-(4-(pyridin-4-yl)-1H-pyrrolo[2,3-b]pyridin-2-yl)-1H-pyrazolo[3,4-c]pyridin-5-yl)pyridin-3-yl)acetamide]: the inhibition at 10 µM in the assay on SW480 colon cancer cells was 7%; with IL-6 (THP-1 cells) it was 34.8%; in assay [1] it was 7.9%. In addition, the EC50 (in the assay with SW480 colon cancer cells; in the assay on IL-6 (THP-1 cells); in assay [1]) was greater than 10 µM in each case.

Turning to `O=C(Nc1cncc(-c2cc3c(-c4cc5cccnc5[nH]4)n[nH]c3cn2)c1)C1CCCCC1` [Compound 275, N-(5-(3-(1H-Pyrrolo[2,3-b]pyridin-2-yl)-1H-pyrazolo[3,4-c]pyridin-5-yl)pyridin-3-yl)cyclohexanecarboxamide], the inhibition at 10 µM with SW480 colon cancer cells was found to be 9.5%; in the assay with IL-6 (THP-1 cells), 24.7%; in assay [1], 14%. Also, the EC50 (in the assay on SW480 colon cancer cells; with IL-6 (THP-1 cells); in assay [1]) was greater than 10 µM throughout.

For `CN(C)CCOc1cncc(-c2cc3c(-c4cc5c(-c6cccnc6)ccnc5[nH]4)n[nH]c3cn2)c1` [Compound 563, N,N-Dimethyl-2-((5-(3-(4-(pyridin-3-yl)-1H-pyrrolo[2,3-b]pyridin-2-yl)-1H-pyrazolo[3,4-c]pyridin-5-yl)pyridin-3-yl)oxy)ethan-1-amine], the inhibition at 10 µM was determined as 0% in the assay on SW480 colon cancer cells, 15% in the assay with IL-6 (THP-1 cells) and 28.8% in assay [1]. Besides, the EC50 (in the assay with SW480 colon cancer cells; in the assay with IL-6 (THP-1 cells); in assay [1]) was greater than 10 µM in each case.

As to `c1cncc(-c2ccnc3[nH]c(-c4n[nH]c5cnc(-c6cncc(CN7CCCC7)c6)cc45)cc23)c1` [Compound 98, 3-(4-(Pyridin-3-yl)-1H-pyrrolo[2,3-b]pyridin-2-yl)-5-(5-(pyrrolidin-1-ylmethyl)pyridin-3-yl)-1H-pyrazolo[3,4-c]pyridine], the results for the inhibition at 10 µM (in the assay with SW480 colon cancer cells; in the assay on IL-6 (THP-1 cells); in assay [1]) were 11.5%, 27.7% and 25.2%, respectively. Further, the EC50 (with SW480 colon cancer cells; in the assay on IL-6 (THP-1 cells); in assay [1]) was greater than 10 µM each time.

Take `CC(C)Nc1cncc(-c2cc3c(-c4cc5c(-c6cccnc6)ccnc5[nH]4)n[nH]c3cn2)c1` [Compound 96, N-Isopropyl-5-(3-(4-(pyridin-3-yl)-1H-pyrrolo[2,3-b]pyridin-2-yl)-1H-pyrazolo[3,4-c]pyridin-5-yl)pyridin-3-amine]: the figures for the inhibition at 10 µM (in the assay with SW480 colon cancer cells; with IL-6 (THP-1 cells); in assay [1]) were 20.5%, 23.5% and 30.3%, respectively. Moreover, the EC50 (in the assay with SW480 colon cancer cells; in the assay with IL-6 (THP-1 cells); in assay [1]) was greater than 10 µM each time.

As for `CC(C)CC(=O)Nc1cncc(-c2cc3c(-c4cc5c(-c6ccc(F)cc6)ccnc5[nH]4)n[nH]c3cn2)c1` [Compound 30, N-(5-(3-(4-(4-Fluorophenyl)-1H-pyrrolo[2,3-b]pyridin-2-yl)-1H-pyrazolo [3,4-c]pyridin-5-yl)pyridin-3-yl)-3-methylbutanamide], the EC50 was 2.47 µM in the assay with SW480 colon cancer cells, greater than 10 µM in the assay with IL-6 (THP-1 cells) and 0.444 µM in assay [1]. In addition, the inhibition at 10 µM in the assay with IL-6 (THP-1 cells) turned out to be 35.6%.

On to `O=C(Nc1cncc(-c2cc3c(-c4cc5c(N6CCCCC6)ccnc5[nH]4)n[nH]c3cn2)c1)C1CC1` [Compound 188, N-(5-(3-(4-(Piperidin-1-yl)-1H-pyrrolo[2,3-b]pyridin-2-yl)-1H-pyrazolo[3,4-c]pyridin-5-yl)pyridin-3-yl)cyclopropanecarboxamide], for which the results for the EC50 (with SW480 colon cancer cells; with IL-6 (THP-1 cells); in assay [1]) were 1.28 µM, greater than 10 µM and 1.23 µM, respectively. In addition, the inhibition at 10 µM in the assay with IL-6 (THP-1 cells) was determined as 16.2%.

For `CCCCC(=O)Nc1cncc(-c2cc3c(-c4cc5c(-c6ccccc6F)ccnc5[nH]4)n[nH]c3cn2)c1` [Compound 75, N-(5-(3-(4-(2-Fluorophenyl)-1H-pyrrolo[2,3-b]pyridin-2-yl)-1H-pyrazolo [3,4-c]pyridin-5-yl)pyridin-3-yl)pentanamide], the EC50 is 0.242 µM in the assay on SW480 colon cancer cells, greater than 10 µM in the assay with IL-6 (THP-1 cells) and 0.542 µM in assay [1]. In addition, the inhibition at 10 µM in the assay on IL-6 (THP-1 cells) is 0%.

As to `CCNCc1cncc(-c2cc3c(-c4cc5c(-c6ccccc6F)ccnc5[nH]4)n[nH]c3cn2)c1` [Compound 62, N-((5-(3-(4-(2-Fluorophenyl)-1H-pyrrolo[2,3-b]pyridin-2-yl)-1H-pyrazolo [3,4-c]pyridin-5-yl)pyridin-3-yl)methyl)ethanamine], the inhibition at 10 µM in the assay with SW480 colon cancer cells was determined as 15.7%; in the assay with IL-6 (THP-1 cells), 24.8%; in assay [1] it was 6.8%. The EC50 (in the assay on SW480 colon cancer cells; in the assay with IL-6 (THP-1 cells); in assay [1]) was greater than 10 µM each time.
